# Test results from PMC8297402, “Trifluoromethyl-substituted 3,5-bis(arylidene)-4-piperidones as potential anti-hepatoma and anti-inflammation agents by inhibiting NF-кB activation” (Journal of Enzyme Inhibition and Medicinal Chemistry, 2021).
# Columns and labels:
# [1] = system: RAW264.7 cell; assay: MTT toxicity pre-experiment on RAW264.7 macrophagocyte; type: cell-based, mouse
# How it was run: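 Cytotoxicity toward RAW264.7 macrophages determined by MTT assay with compounds at 5.0 μM, expressed as cell survival rate.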
# [2] = system: IL-6; assay: ELISA of IL-6 release in LPS-stimulated RAW264.7 cells; type: cell-based, mouse; conditions: Mus musculus, RAW264.7, BAPs (5 μM) + LPS (1 μg/mL), RAW264.7, ELISA; read-out: Inhibition rate IL-6
# How it was run: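 RAW264.7 cells pretreated 2 h with compound at 5.0 μM (PDTC 30 μM as reference), then stimulated with LPS 1.0 μg/mL for a further 22 h. Secreted TNF-α and IL-6 in the culture media quantified by ELISA.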
# [3] = in vitro; type: cell-based; conditions: human
# Protocol: aThe letters SI refer to the selectivity index which is the quotient of the IC50 values for normal and […]
# Preliminary safety evaluation of BAP 16
# Toxicity test on normal non-liver cell lines: To validate the safety of BAP 16, one Human embryonic lung fibroblasts cell line (HFL1), one human embryonic kidney cell line (HEK293), and one human normal lung bronchial epithelial cell line (BEAS-2B) were tested using a modified MTT assay (Dojindo Laboratories, Tokyo, Japan). F12K medium containing 10% FBS was used for culturing the HFL1 cell line, DMEM medium containing 10% FBS and 1.5 g/L sodium bicarbonate was used for culturing the HEK293 cell line, and the BEAS-2B special medium was used for culturing BEAS-2B cell line. The remaining operations were consistent with the previous […]
# human normal non-heptical cell lines (HFL1, HEK293 and BEAS-2B), which was similar to that of human normal heptical cell lines.
# Table S2. Toxicity test of BAP 16 on normal non-heptical cell lines. […]
# Acute Toxicity Studies: Animal experiments were reviewed and approved by the Binzhou Medical University Experimental Animal Committee. The acute toxicity study was investigated on the six-week-old female ICR mice (n = 30) weighing 18-22 grams (Jinan Pengyue Experimental Animal Breeding Co., Ltd.). Briefly, mice were randomly divided into three groups (n = 10/group) and administrated the BAP 16 or solvent. The three groups of mice were treated with intragastric administration of 300 mg/kg, 600 mg/kg of BAP 16 and vehicle (saline containing 0.5% CMC-Na) each day. The body weight of mice was recorded every day, and the toxicity and death of mice were monitored daily for up to day 14. On day 14, the surviving animals were dissected to observe whether the internal organs had visible tissue changes, and then the livers were taken for formaldehyde fixation, dehydration, embedding, sectioning, and HE staining. The cell images were taken using a light microscopy (Olympus, Tokyo, Japan).
# [4] = system: HepG2 cells; assay: Apoptosis assay, Annexin V-FITC/PI flow cytometry; type: cell-based, Human; conditions: 1.0 μM, 24 h
# Protocol: HepG2 cells were selected and plated at a density of approximately 2 × 10^5 cells/well in a 12-well plate. After treatment with BAP 16 (1.0, 2.0, and 4.0 μM) and DMSO for 24 h, cells were harvested, washed twice with pre-chilled PBS, and suspended in 1 × binding buffer at a concentration of 1 × 10^5 cells/mL. According to the manufacturer’s instruction, 100 μL of such medium was then mixed with 5 μL of Annexin V-FITC and 5 μL of propidium iodide (BD Biosciences, San Jose, CA, USA). The mixture was vortexed gently, then incubated in the dark at room temperature for 15 min. Apoptosis analysis was measured by flow cytometry (BD FACS Calibur).
# [5] = system: Bcl-2; assay: Western blot, Bcl-2 expression in HepG2 cells; type: cell-based, Human; conditions: HepG2, 1.0, 2.0, 4.0 μM, 24 h
# Excerpt: (§1) Primary antibodies (anti-Bax, Abcam, ab32503; anti-Bcl-2, Abcam, ab194583; anti-Cleaved caspase-3, Abcam, ab2302; anti-p65, Cell Signalling Technology, 8242S; anti-p-p65, Cell Signalling Technology, 3033S; anti-IκBα, Cell Signalling Technoligy, 4812S; anti-p-IκBα, Cell Signalling Technology, 2859S; anti-p38, Cell Signalling Technology, 8690S; anti-p-p38, Cell Signalling Technology, 4511S; anti-JNK, Cell Signalling Technology, 9258 T; anti-p-JNK, Santa Cruz Biotechnology, sc-6254; anti-GAPDH, Abcam, ab181602), and goat anti-rabbit IgG/HRP secondary antibodies (Cell Signalling Technology, 98164 s) were purchased and used according to the manufacturer’s instructions. HepG2 cell lines were incubated with different doses of BAP 16 (1.0, 2.0, 4.0 μM) for 24 h (Bax, Cleaved caspase-3, Bcl-2). RAW264.7 cells were incubated with BAP 16 for 1 h, then treated with LPS (1.0 μg/mL) for 30 min. Afterward cell extraction was performed and extracts were used for Western blot analysis. Next, 30 μg protein of cell lysates were separated by 12% SDS-PAGE gel. The proteins were then transferred onto nitrocellulose membranes. […] By using Quantity One software (Bio-Rad), western blotting results were quantified from more than three separate experiments.
# [6] = system: Bax; assay: Western blot, Bax expression in HepG2 cells; type: cell-based, Human; conditions: HepG2, 1.0, 2.0, 4.0 μM, 24 h
# Excerpt: as §1
# [7] = system: C-Caspase-3; assay: Western blot, C-Caspase-3 expression in HepG2 cells; type: cell-based, Human; conditions: HepG2, 1.0, 2.0, 4.0 μM, 24 h
# Excerpt: as §1
# [8] = system: p-p38; assay: Western blot, LPS-induced phosphorylation of p38 in RAW264.7 cells; type: cell-based, mouse; conditions: RAW264.7, 1.0, 2.0, 4.0 μM, LPS 1.0 μg/mL 30 min
# Excerpt: as §1
structure (smiles),measurement,setting,value
O=C1C(=Cc2cccc(C(F)(F)F)c2)CN(S(=O)(=O)c2ccc(C(F)(F)F)cc2)CC1=Cc1cccc(C(F)(F)F)c1 [BAP 16],Survival rate RAW264.7 cell,[1]; BAPs 5 μM,88.6 ± 3.7%
same,viability at 5 µM,"[1]; Mus musculus, RAW264.7, BAPs 5 μM, read-out: Survival rate RAW264.7 cell",88.6%
same,inhibition at 5 µM,[2],~79.2%
same,IC50,[3]; Cytotoxicity IC50 BEAS-2B,17.6 ± 2.53 µM
same,IC50,[3]; Cytotoxicity IC50 HEK293,7.19 ± 0.91 µM
same,IC50,[3]; Cytotoxicity IC50 HFL1,9.62 ± 1.52 µM
same,Apoptosis of HepG2 cells,[4],31.7%
same,Expression of anti-apoptotic protein Bcl-2,[5],decreased in a dose-dependent manner
same,Expression of pro-apoptotic protein Bax,[6],significantly increased
same,Expression of pro-apoptotic protein C-Caspase-3,[7],significantly increased
same,Expression level of p-p38,[8],significantly decreased
